Laboratory results as given in US20260007599A1, “TICAGRELOR IV FORMULATIONS FOR USE IN THE TREATMENT OF GRAM-POSITIVE BACTEREMIA” (Hyloris Developments SA, priority 2023, published 2026).

Key:
[1] = Storage stability of ticagrelor 6 mg/ml in HPβCD 40% w/w, phosphate buffer pH 7.5, 40° C./75% RH; assay type: physicochemical
Method: A Gradient HPLC method was used to analyze impurities in formulations using a YMC-Pack Pro C18 column (100×4.6 mm, S-3 μm 12 nm). Good separation was obtained for all the impurities. Following the experiment described in example 2, a storage stability study at pH 7.5 was conducted First HPβCD was dissolved in a phosphate buffer solution of pH 7.5 prepared separately in water. […] The solution was filtered through a 0.22 micrometer filter and filled in USP Type I amber colored glass vials. The vials were stoppered and stored. All precautions were taken during manufacturing, such as N2 purging and avoiding direct exposure to light.

[2] = Impact of ticagrelor particle size on dissolution; assay type: physicochemical
Method: In a further example the impact of particle size on solubility was tested. Two different particle size diameters for the ticagrelor active ingredient were screened, 5.5 and 15 micrometers. The pH and osmolality were not affected.

[3] = Impact of packaging material on stability, 40° C./75% RH; assay type: physicochemical; design: Assay: unit not given here; details: for Acetal impurity / Amine impurity / Assay / Description / Regiomer / Sum impurities >0.05 / Total (impurity) / Triol impurity / pH: HPβCD 32.5% w/w, 5 mM pH 7.5 phosphate buffer, 40° C./75% RH
Method: To study the potential impact of the packaging material on the stability of the ticagrelor-cyclodextrin inclusion complex, a composition with 32.5% w/w HPβCD was prepared with procedures and precaution's similar to previous trials; samples were stored in transparent clear glass vials and amber colored glass vials at a temperature of 40° C./75% RH.

[4] = Dilution of a concentrated ticagrelor vial (8 ml, 65 mg ticagrelor, about 3 g HPβCD); assay type: physicochemical
[5] = Storage stability of Example 14 aqueous ticagrelor solutions; assay type: physicochemical; details: 5-15 mg/ml ticagrelor, 20-40% w/w HPβCD; 40° C. and 75% Relative Humidity
Method: Aqueous ticagrelor solutions for intravenous administration were prepared with the following composition: • 5-15 mg/ml Ticagrelor • 20-40% w/w HPβCD • Q·S to 1 ml Acetate or Phosphate Buffer pH 4.5 to 6.5 • pH solution: 6-8 • Osmolality solution: 350-900 mOsm/kg
Packaged in a glass vial, containing 5-15 ml aqueous ticagrelor solution.
Storage stability: at least 3 months at 40° C. and 75% Relative Humidity

[6] = test system: methicillin-resistant Staphylococcus epidermis (MRSE); details: ex-vivo; cited from earlier work
Enterococcus faecalis = details: ex-vivo; cited from earlier work
[7] = test system: Staphylococcus agalactiae; details: ex-vivo; cited from earlier work
[8] = particle distribution D90 5.5 μm, micronized
[9] = particle distribution D90 15 μm, unmicronized

Structure (SMILES): CCCSc1nc(N[C@@H]2C[C@H]2c2ccc(F)c(F)c2)c2nnn([C@@H]3C[C@H](OCCO)[C@@H](O)[C@H]3O)c2n1 [ticagrelor, (1S,2S,3R,5S)-3-{7-[(1R,2S)-2-(3,4-difluorophenyl)cyclopropylamino]5-(propylthio)-3H-(1,2,3)triazolo (4,5-D)pyrimidin-3-yl}-5-(2 hydroxyethoxy) cyclopentane-1,2-diol]
- Acetal impurity ([1]; T = 0, 40° C./75% RH): 0.05%
- Amine impurity ([1]; T = 0, 40° C./75% RH): 0.04%
- Assay ticagrelor ([1]; T = 0, 40° C./75% RH): 104.27%
- Regiomer impurity ([1]; T = 0, 40° C./75% RH): 0.00%
- Sum impurities >0.05 ([1]; T = 0, 40° C./75% RH): 0.11%
- Total impurities ([1]; T = 0, 40° C./75% RH): 0.31%
- Triol impurity ([1]; T = 0, 40° C./75% RH): 0.04%
- Acetal impurity ([1]; T = 4 weeks, 40° C./75% RH): 0.05%
- Amine impurity ([1]; T = 4 weeks, 40° C./75% RH): 0.05%
- Assay ticagrelor ([1]; T = 4 weeks, 40° C./75% RH): 104.47%
- Regiomer impurity ([1]; T = 4 weeks, 40° C./75% RH): 0.01%
- Sum impurities >0.05 ([1]; T = 4 weeks, 40° C./75% RH): 0.14%
- Total impurities ([1]; T = 4 weeks, 40° C./75% RH): 0.32%
- Triol impurity ([1]; T = 4 weeks, 40° C./75% RH): 0.05%
- Acetal impurity ([1]; T = 8 weeks, 40° C./75% RH): 0.05%
- Amine impurity ([1]; T = 8 weeks, 40° C./75% RH): 0.05%
- Assay ticagrelor ([1]; T = 8 weeks, 40° C./75% RH): 102.59%
- Regiomer impurity ([1]; T = 8 weeks, 40° C./75% RH): 0.04%
- Sum impurities >0.05 ([1]; T = 8 weeks, 40° C./75% RH): 0.15%
- Total impurities ([1]; T = 8 weeks, 40° C./75% RH): 0.29%
- Triol impurity ([1]; T = 8 weeks, 40° C./75% RH): 0.05%
- Acetal impurity ([1]; T = 12 weeks, 40° C./75% RH): 0.05%
- Amine impurity ([1]; T = 12 weeks, 40° C./75% RH): 0.05%
- Assay ticagrelor ([1]; T = 12 weeks, 40° C./75% RH): 102.31%
- Regiomer impurity ([1]; T = 12 weeks, 40° C./75% RH): 0.08%
- Sum impurities >0.05 ([1]; T = 12 weeks, 40° C./75% RH): 0.23%
- Total impurities ([1]; T = 12 weeks, 40° C./75% RH): 0.41%
- Triol impurity ([1]; T = 12 weeks, 40° C./75% RH): 0.04%
- Acetal impurity ([1]; T = 24 Weeks, 40° C./75% RH): 0.05%
- Amine impurity ([1]; T = 24 Weeks, 40° C./75% RH): 0.07%
- Assay ticagrelor ([1]; T = 24 Weeks, 40° C./75% RH): 104.39%
- Regiomer impurity ([1]; T = 24 Weeks, 40° C./75% RH): 0.16%
- Sum impurities >0.05 ([1]; T = 24 Weeks, 40° C./75% RH): 0.33%
- Total impurities ([1]; T = 24 Weeks, 40° C./75% RH): 0.35%
- Triol impurity ([1]; T = 24 Weeks, 40° C./75% RH): 0.05%
- storage stability (conclusion) ([1]; accelerated storage conditions of 40° C. and 75% Relative Humidity): good storage stability
- Dissolution time [2, 8]: 33 min
- Osmolality [2, 8]: 751 mOsm/kg
- pH [2, 8]: 7.68
- Dissolution time [2, 9]: 125 min
- Osmolality [2, 9]: 753 mOsm/kg
- pH [2, 9]: 7.70
- difference between clear and amber glass vials ([3]; accelerated storage stability test, after 3 months): no significant difference
- number of different impurities developed on storage ([3]; accelerated storage stability test, without the cyclodextrin): 6 to 8
- Acetal impurity ([3]; amber glass vials, 1 M): 0.05%
- Amine impurity ([3]; amber glass vials, 1 M): 0.04%
- Assay ([3]; amber glass vials, 1 M): 100.24
- Description ([3]; amber glass vials, 1 M): clear
- Regiomer ([3]; amber glass vials, 1 M): 0.01%
- Sum impurities >0.05 ([3]; amber glass vials, 1 M): 0.05%
- Total (impurity) ([3]; amber glass vials, 1 M): 0.22%
- Triol impurity ([3]; amber glass vials, 1 M): 0.02%
- pH ([3]; amber glass vials, 1 M): 7.70
- Acetal impurity ([3]; amber glass vials, 2 M): 0.04%
- Amine impurity ([3]; amber glass vials, 2 M): 0.04%
- Assay ([3]; amber glass vials, 2 M): 99.89
- Description ([3]; amber glass vials, 2 M): clear
- Regiomer ([3]; amber glass vials, 2 M): 0.02%
- Sum impurities >0.05 ([3]; amber glass vials, 2 M): 0.00%
- Total (impurity) ([3]; amber glass vials, 2 M): 0.28%
- Triol impurity ([3]; amber glass vials, 2 M): 0.04%
- pH ([3]; amber glass vials, 2 M): 7.69
- Acetal impurity ([3]; amber glass vials, 3 M): 0.05%
- Amine impurity ([3]; amber glass vials, 3 M): 0.06%
- Assay ([3]; amber glass vials, 3 M): 98.93
- Description ([3]; amber glass vials, 3 M): clear
- Regiomer ([3]; amber glass vials, 3 M): 0.04%
- Sum impurities >0.05 ([3]; amber glass vials, 3 M): 0.16%
- Total (impurity) ([3]; amber glass vials, 3 M): 0.33%
- Triol impurity ([3]; amber glass vials, 3 M): 0.05%
- pH ([3]; amber glass vials, 3 M): 7.66
- Acetal impurity ([3]; amber glass vials, T0): 0.05%
- Amine impurity ([3]; amber glass vials, T0): 0.04%
- Assay ([3]; amber glass vials, T0): 98.34
- Description ([3]; amber glass vials, T0): clear
- Regiomer ([3]; amber glass vials, T0): 0.00%
- Sum impurities >0.05 ([3]; amber glass vials, T0): 0.18%
- Total (impurity) ([3]; amber glass vials, T0): 0.40%
- Triol impurity ([3]; amber glass vials, T0): 0.04%
- pH ([3]; amber glass vials, T0): 7.66
- Acetal impurity ([3]; clear glass vials, 1 M): 0.04%
- Amine impurity ([3]; clear glass vials, 1 M): 0.04%
- Assay ([3]; clear glass vials, 1 M): 101.71
- Description ([3]; clear glass vials, 1 M): clear
- Regiomer ([3]; clear glass vials, 1 M): 0.01%
- Sum impurities >0.05 ([3]; clear glass vials, 1 M): 0.00%
- Total (impurity) ([3]; clear glass vials, 1 M): 0.22%
- Triol impurity ([3]; clear glass vials, 1 M): 0.03%
- pH ([3]; clear glass vials, 1 M): 7.65
- Acetal impurity ([3]; clear glass vials, 2 M): 0.04%
- Amine impurity ([3]; clear glass vials, 2 M): 0.04%
- Assay ([3]; clear glass vials, 2 M): 99.69
- Description ([3]; clear glass vials, 2 M): clear
- Regiomer ([3]; clear glass vials, 2 M): 0.02%
- Sum impurities >0.05 ([3]; clear glass vials, 2 M): 0.05%
- Total (impurity) ([3]; clear glass vials, 2 M): 0.28%
- Triol impurity ([3]; clear glass vials, 2 M): 0.05%
- pH ([3]; clear glass vials, 2 M): 7.63
- Acetal impurity ([3]; clear glass vials, 3 M): 0.05%
- Amine impurity ([3]; clear glass vials, 3 M): 0.06%
- Assay ([3]; clear glass vials, 3 M): 98.25
- Description ([3]; clear glass vials, 3 M): clear
- Regiomer ([3]; clear glass vials, 3 M): 0.04%
- Sum impurities >0.05 ([3]; clear glass vials, 3 M): 0.16%
- Total (impurity) ([3]; clear glass vials, 3 M): 0.33%
- Triol impurity ([3]; clear glass vials, 3 M): 0.05%
- pH ([3]; clear glass vials, 3 M): 7.58
- Acetal impurity ([3]; clear glass vials, T0): 0.05%
- Amine impurity ([3]; clear glass vials, T0): 0.04%
- Assay ([3]; clear glass vials, T0): 98.34
- Description ([3]; clear glass vials, T0): clear
- Regiomer ([3]; clear glass vials, T0): 0.00%
- Sum impurities >0.05 ([3]; clear glass vials, T0): 0.22%
- Total (impurity) ([3]; clear glass vials, T0): 0.40%
- Triol impurity ([3]; clear glass vials, T0): 0.05%
- pH ([3]; clear glass vials, T0): 7.65
- clear solution on dilution ([4]; 0,9 w/v % NaCl solution as diluent): not possible
- appearance after dilution ([4]; diluted with 25 ml 5 w/v % dextrose, final volume 33 ml): clear solution
- Storage stability [5]: at least 3 months
- minimal bactericidal concentration [6]: 30 microgram/ml
- minimal bactericidal concentration (Enterococcus faecalis): 40 microgram/ml
- minimal bactericidal concentration [7]: 40 microgram/ml
